Patent publication US20140024132A1, “METHODS AND SYSTEMS USING INTEGRATED METABOLOMICS AND PHARMACOKINETICS FOR MULTI-COMPONENT DRUG EVALUATION” (priority 2010, published 2014)

Assays:
[1] = tested on: human metabolite endpoints; assay: Urinary metabolomic response during 6-week study (24 h, 2 week daily Pu-erh tea intake, 2 week wash-out) vs pre-dose, OPLS-DA and S-plot; type: in vivo; conditions: 2 week of Pu-erh tea daily intake vs pre-dose, human urine
Procedure: (§1) Volunteers were provided with identical standard meals three times per day during the experiment (e.g., breakfast: milk and bread; lunch: beef and vegetables; dinner: pork and cabbage). […] Urine samples were stored at −80° C. before analysis.

[2] = tested on: endogenous urinary metabolite profiles; assay: Altered endogenous urinary metabolites after a single Pu-erh tea intake, UPLC-QTOFMS and GC-TOFMS profiling; type: in vivo; conditions: human urine
Procedure: (§2) Participants received a dose equivalent to 5 cups of commercially prepared tea. Twenty healthy men (n=10) and women (n=10) whose mean age was 25±2 years (range 22-32) were enrolled in this study, and written consent was obtained from each participant.
as §1
(§3) The tea infusion used in this study and the collected urine samples were centrifuged at 13,000 rpm for 10 min at 4° C., and the resulting supernatants were immediately stored at −80° C. pending UPLC-QTOFMS analysis. Ultrapure water (500 μL) was added to the tea or urine sample (500 μL) and vortexed for 1 min. The sample was then filtered through a syringe filter (0.22 μm) for UPLC-QTOFMS analysis.; incorporated by reference herein in its entirety.
(§4) The tea infusion (100 μL) described in Example 2 and urine samples (100 μL) were spiked with two internal standard solutions (10 μL-2-chlorophenylalanine in water, 0.3 mg/ml; 10 μL heptadecanoic acid in methanol, 1 mg/mL), and vortexed for 10 seconds. The mixed solution was extracted with 300 μL of methanol:chloroform (v/v 3:1) and vortexed for 30 seconds. After storing for 10 min at −20° C., the samples were centrifuged at 10,000 rpm for 10 min. An aliquot of the 300 μL supernatant was transferred to a glass sampling vial to vacuum dry at room temperature. The residue was derivatized using a two-step procedure. First, 80 μL methoxyamine (15 mg/mL in pyridine,) was added to the vial and kept at 30° C. for 90 min followed by 80 μL BSTFA (1% TMCS) at 70° C. for 60 min. See protocols set forth in Ni et al., FEBS Lett. 581: 707-711 (2007).; incorporated by reference herein in its entirety.
(§5) UPLC: Tea and urine metabolite profiling were performed using a Waters ACQUITY UPLC system equipped with a binary solvent delivery manager and a sample manager (Waters Corporation, Milford, Mass., USA), coupled to a Micromass Q-TOF Premier mass spectrometry equipped with an electrospray interface (Waters Corporation, Milford, M A, USA). Chromatographic separations were performed on a 2.1×100 mm 1.7 μm ACQUITY BEH C18 chromatography column. The column was maintained at 45° C. and eluted with a 1-99% acetonitrile (0.1% (v/v) formic acid)-aqueous formic acid (0.1% (v/v) formic acid) gradient over 10 min at a flow rate of 0.40 mL/min. A 5 μL aliquot sample was injected onto the column.
(§6) Mass Spectrometry: The mass accuracy analysis and detailed MS parameters were optimized according to our prior studies, which is incorporated herein in its entirety. During metabolite profiling experiments, centroid data was acquired for each sample from 50 to 1000 Da with a 0.10 sec scan time and a 0.01 sec interscan delay over a 10 min analysis time. A metabonomics MS System Test Mixture including acetaminophen, tolbutamide, 3′-azido-3′-deoxythymidine, reserpine, verapamil and coumarin was used as chromatographic reference and mass accuracy quality control. This test mixture was injected every ten injections. The mass spectrometer was operated in positive ion mode. The desolvation temperature was set to 400° C. at a flow rate of 700 L/hr and source temperature of 100° C. The capillary and cone voltages were set to 3500 and 45 V, respectively. The data was collected between 50-1000 m/z with alternating collision energy, at 5 eV for precursor ion information generation and a collision profile from 10-40 eV for fragment ion information. The Q-TOF Premier™ was operated in v mode with 10,000 mass resolving power. Data were centroided during acquisition using independent reference lock-mass ions via the LockSpray™ interface to ensure mass accuracy and reproducibility. Leucine-enkephalin was used as the reference compound at a concentration of 50 pg/μL and an infusion flow rate of 0.05 mL/min.

[3] = Urine levels of absorbed (bioavailable) Pu-erh tea components after a single Pu-erh tea intake, UPLC-QTOFMS and GC-TOFMS profiling; type: in vivo, human; conditions: for FC (fold change): absorbed Pu-erh tea metabolite, human urine
Procedure: as §2, §1, §3, §4, §5, §6

[4] = Pearson correlation of absorbed, biotransformed plant metabolites and altered endogenous metabolites in urine; type: in vivo, human; conditions: ρ≧0.7 or ρ≦−0.7, urine, FIG. 13
Procedure: Similarly, in order to study the relationship of dynamic response of metabolites along with the time course, mean value of each metabolite was calculated at each time point (0 h→1 h→2 h→3 h→6 h→12 h→24 h). A new metabolite vector with 7 mean values calculated at 7 different time points, representing the average response, was constructed and the Pearson correlation coefficients were calculated similarly with the pair-wise comparison of metabolites.

[5] = Urine levels of biotransformed Pu-erh tea metabolites (produced in vivo) after a single Pu-erh tea intake, UPLC-QTOFMS and GC-TOFMS profiling; parameters: species or system human
Procedure: Approximately 1 kg of 5-year-old Pu-erh tea was mixed to produce a homogeneous sample, and then ground into a fine powder and filtered through a 20 mesh screen. The Pu-erh tea was prepared by infusing 10 g powder in 200 mL boiling water for 10 min, followed by straining. Participants received a dose equivalent to 5 cups of commercially prepared tea. Twenty healthy men (n=10) and women (n=10) whose mean age was 25±2 years (range 22-32) were enrolled in this study, and written consent was obtained from each participant.
Volunteers were provided with identical standard meals three times per day during the experiment (e.g., breakfast: milk and bread; lunch: beef and vegetables; dinner: pork and cabbage). Urine samples of 12 healthy men (n=6) and women (n=6) selected from the 20 participants were collected just before breakfast including the 200 mL Pu-erh tea and at 1 h, 3 h, 6 h, 9 h, 12 h, and 24 h thereafter. Spot urine samples of all 20 participants were collected daily between 11:00 and 11:30 a.m. during a 6-week period that included a 2-week baseline phase, a 2-week daily Pu-erh tea ingestion phase, and a 2-week post-dosing phase. […] Urine samples were stored at −80° C. before analysis.
as §3, §4, §5
Mass Spectrometry: The mass accuracy analysis and detailed MS parameters were optimized according to our prior studies, which is incorporated herein in its entirety. During metabolite profiling experiments, centroid data was acquired for each sample from 50 to 1000 Da with a 0.10 sec scan time and a 0.01 sec interscan delay over a 10 min analysis time. A metabonomics MS System Test Mixture including acetaminophen, tolbutamide, 3′-azido-3′-deoxythymidine, reserpine, verapamil and coumarin was used as chromatographic reference and mass accuracy quality control. This test mixture was injected every ten injections. The mass spectrometer was operated in positive ion mode. […]

[6] = 1 h after Pu-erh tea intake vs pre-dose
[7] = 3 h after Pu-erh tea intake vs pre-dose
[8] = 6 h after Pu-erh tea intake vs pre-dose
[9] = 9 h after Pu-erh tea intake vs pre-dose
[10] = 12 h after Pu-erh tea intake vs pre-dose
[11] = 24 h after Pu-erh tea intake vs pre-dose

| Molecule | FC (fold change) ([3]; 9 h post-dose vs pre-dose) | FC (fold change) ([3]; 12 h post-dose vs pre-dose) | FC (fold change) ([3]; 24 h post-dose vs pre-dose) | FC (fold change) ([3]; 1 h post-dose vs pre-dose) | FC (fold change) ([3]; 3 h post-dose vs pre-dose) | FC (fold change) ([3]; 6 h post-dose vs pre-dose) | other results |
| --- | --- | --- | --- | --- | --- | --- | --- |
| COc1ccc(CC(=O)O)cc1 [4-methoxyphenylacetic acid] | – | – | – | – | – | – | change of urinary excretion / concentration [1]: increased |
| NC(C(=O)O)C(=O)O [Aminomalonic acid] | – | – | – | – | – | – | FC (fold change) [2, 6]: 1.90; FC (fold change) [2, 7]: 3.09; FC (fold change) [2, 8]: 3.09; FC (fold change) [2, 9]: 0.45; FC (fold change) [2, 10]: 0.57; FC (fold change) [2, 11]: 0.35 |
| O=C(O)c1cc(O)cc(O)c1 [3,5-hydroxy benzoic acid] | 0.42 | 0.47 | 0.20 | – | – | – | – |
| COc1ccccc1O [2-Methoxyphenol] | – | – | – | – | – | – | FC (fold change) [2, 6]: 0.48; FC (fold change) [2, 7]: 0.31; FC (fold change) [2, 8]: 0.31; FC (fold change) [2, 9]: 0.41; FC (fold change) [2, 10]: 0.59; FC (fold change) [2, 11]: 0.61 |
| N[C@@H](Cc1c[nH]c2ccc(O)cc12)C(=O)O [5-hydroxytryptophan] | – | – | – | – | – | – | change of urinary excretion / concentration [1]: increased |
| NCC(=O)O [Glycine] | 1.53 | 1.77 | 1.04 | 1.28 | 1.67 | 2.32 | – |
| Cn1c(=O)c2c(ncn2C)n(C)c1=O [Caffeine] | 277.02 | 160.06 | 46.28 | 454.37 | 573.74 | 437.21 | time at which concentration reached maximum levels in urine ([3]; absorbed plant metabolites, after oral administration of Pu-erh tea, FIG. 10A): 1 h; time at which cleared away from urine ([3]; absorbed plant metabolites, post-dose, FIG. 10A): 9 h; correlation with its biodegradated metabolites paraxanthine, theophylline, hippuric acid and 3-hydroxyphenylacetic acid [4]: positively corrected |
| Oc1ccccc1 [Phenol] | – | – | – | – | – | – | FC (fold change) [2, 6]: 1.04; FC (fold change) [2, 7]: 1.22; FC (fold change) [2, 8]: 1.43; FC (fold change) [2, 9]: 1.14; FC (fold change) [2, 10]: 1.32; FC (fold change) [2, 11]: 2.22 |
| COc1cc(CC(=O)O)ccc1O [4-Hydroxy-3-methoxyphenylacetic acid] | – | – | – | – | – | – | FC (fold change) [2, 6]: 0.39; FC (fold change) [2, 7]: 0.11; FC (fold change) [2, 8]: 0.27; FC (fold change) [2, 9]: 0.55; FC (fold change) [2, 10]: 0.85; FC (fold change) [2, 11]: 1.12 |
| NCCCC(=O)O [4-Aminobutanoic acid] | 39.08 | 100.29 | 49.03 | 3.95 | 5.14 | 24.12 | FC (fold change) [2, 6]: 3.95; FC (fold change) [2, 7]: 5.14; FC (fold change) [2, 8]: 24.12; FC (fold change) [2, 9]: 39.08; FC (fold change) [2, 10]: 100.29; FC (fold change) [2, 11]: 49.03 |
| O[C@H]1[C@H](O)[C@@H](O)[C@H](O)[C@@H](O)[C@H]1O [inositol] | – | – | – | – | – | – | change of urinary excretion / concentration [1]: increased |
| Cn1c(=O)c2[nH]cnc2n(C)c1=O [Theophylline] | 45.99 | 38.67 | 19.22 | 11.62 | 42.69 | 54.55 | – |
| CC(C)[C@H](N)C(=O)O [Valine] | – | – | – | – | – | – | FC (fold change) [2, 6]: 2.58; FC (fold change) [2, 7]: 1.25; FC (fold change) [2, 8]: 2.16; FC (fold change) [2, 9]: 2.32; FC (fold change) [2, 10]: 2.76; FC (fold change) [2, 11]: 1.38 |
| 3-chlorotyrosine-2-aminobenzoic acid | – | – | – | – | – | – | change of urinary excretion / concentration [1]: decreased |
| Cc1cnc(C)c(O)c1C=O [5-Deoxypyridoxal] | 2.35 | 0.91 | 0.81 | 2.56 | 3.69 | 3.68 | – |
| Cn1cnc2c1c(=O)[nH]c(=O)n2C [Theobromine] | 5.42 | 4.43 | 2.67 | 4.04 | 6.76 | 7.75 | – |
| O=C(O)c1cccnc1 [Nicotinic acid] | 63.95 | 49.02 | 27.31 | 14.31 | 62.95 | 78.98 | – |
| CCN [Ethylamine] | – | – | – | – | – | – | FC (fold change) [5, 7]: 3.10; FC (fold change) [5, 8]: 3.87; FC (fold change) [5, 9]: 2.65; FC (fold change) [5, 10]: 3.09; FC (fold change) [5, 11]: 1.58; FC (fold change) ([5]; l h after Pu-erh tea intake vs pre-dose): 1.73 |
| O=C(O)CCC(=O)O [Succinate] | 0.57 | 0.84 | 0.93 | 1.15 | 0.90 | 0.74 | – |
| O=C(O)CC(O)(CC(=O)O)C(=O)O [Citric acid] | 1.20 | 1.42 | 1.17 | 1.42 | 1.76 | 1.59 | – |
| Oc1ccc2[nH]c(O)cc2c1 [2,5-dihydroxy-1H-indole] | – | – | – | – | – | – | change of urinary excretion / concentration [1]: decreased |
